# In article PMC8041284, “Tunable Methacrylamides for Covalent Ligand Directed Release Chemistry” (Journal of the American Chemical Society, 2021):
# Molecular target: BTK (Homo sapiens, UniProt Q06187)
# Assay: biochemical
# Details: read-out: BTK inhibition (%), 0.75 uM BTK, […] probe 3l, 15 min preincubation
# BTK, sequence (Q06187 402-655 limits assumed): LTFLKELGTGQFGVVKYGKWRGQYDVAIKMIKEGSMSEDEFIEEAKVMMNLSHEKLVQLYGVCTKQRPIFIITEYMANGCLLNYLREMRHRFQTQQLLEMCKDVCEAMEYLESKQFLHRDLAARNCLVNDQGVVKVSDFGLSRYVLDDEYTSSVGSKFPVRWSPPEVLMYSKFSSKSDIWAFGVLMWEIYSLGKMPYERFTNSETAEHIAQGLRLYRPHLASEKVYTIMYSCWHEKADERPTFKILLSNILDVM
row,Compound,inhibition at 10 µM
1,C[C@@]1(c2cc(-c3cncnc3)c(F)cc2F)CCSC(N)=N1 [PCM-0095088],-25.7%
2,c1ccc2[nH]c(-c3cscn3)nc2c1 [PCM-0086067],-17.1%
3,NC(=O)OCC(COC(N)=O)c1ccccc1 [PCM-0065204],3.1%
4,CC1=C(CC(=O)O)c2cc(F)ccc2/C1=C\c1ccc([S+](C)[O-])cc1 (stereo not drawn) [PCM-0065451],8.3%
5,Cc1onc(-c2ccccc2)c1-c1ccc(S(N)(=O)=O)cc1 [PCM-0095602],-38.6%
6,COC(=O)c1ccc(O)c(C(=O)OC)c1 [PCM-0215105],-13.1%
7,COc1cc(C(=O)O)ccc1NC(=O)[C@@H]1N[C@@H](CC(C)(C)C)[C@](C#N)(c2ccc(Cl)cc2F)[C@H]1c1cccc(Cl)c1F [PCM-0215391],27.8%
8,CC(C)C12CCC(C)(CC1)O2 [PCM-0216156],23.9%
9,Cc1noc(NS(=O)(=O)c2ccc(N)cc2)c1C [PCM-0085967],10.9%
10,CC(C)C[C@H](NC(=O)[C@H]1O[C@@H]1C(=O)O)C(=O)NCCCCN=C(N)N [PCM-0215218],15.4%
11,N/C(=N\N=C\c1ccc(Cl)cc1)N/N=C/c1ccc(Cl)cc1 [PCM-0215125],77.8%
12,C=C1/C(=C\C=C2/CCC[C@]3(C)[C@@H]([C@H](C)/C=C/[C@@H](O)C4CC4)CC[C@@H]23)C[C@@H](O)C[C@@H]1O [PCM-0214926],1.6%
13,CCN1CCN(C(=O)Cc2ccc(Nc3ncc(F)c(Nc4ccc(C(=O)Nc5ccccc5Cl)cc4)n3)cc2)CC1 [PCM-0095121],40.7%
14,Cc1ccc(S(=O)(=O)Cc2nc(-c3ccc(C(=O)NCc4cccnc4)cc3)oc2C)cc1 [PCM-0215271],-4.6%
15,CC(=O)OC/C=C/c1ccccc1 [PCM-0216207],-14.7%
16,COc1ccc([C@@H]2OC[C@H]3[C@@H]2CO[C@@H]3c2ccc(O[C@@H]3O[C@H](CO)[C@@H](O)[C@H](O)[C@H]3O)c(OC)c2)cc1OC [PCM-0215021],-6.2%
17,C[C@H](CSC(=O)c1ccccc1)C(=O)N1C[C@@H](Sc2ccccc2)C[C@H]1C(=O)O [PCM-0216252],-43.2%
18,O=C(C[C@H]1NCCC[C@@H]1O)Cn1cnc2cc(Br)c(Cl)cc2c1=O [PCM-0102069],0%
19,COc1ccc(S(=O)(=O)Nc2cccnc2Nc2ccc(O)cc2)cc1 [PCM-0095016],-14.5%
20,NCCOc1cc(C(=O)Nc2cc(OCCN)c3ccccc3n2)nc(C(=O)Nc2cc(OCCN)c3ccccc3n2)c1 [PCM-0215476],59.5%
21,C=CC(=O)Nc1cccc(Sc2nc(Nc3ccc(N4CCN(C)CC4)cc3)ncc2Cl)c1 [PCM-0095052],95.9%
22,CCn1cc(NC(=S)Nc2cc(Cl)ccc2OC)c(C(N)=O)n1 [PCM-0215323],0%
23,O=C(O)c1ccc(N2C(=O)/C(=C/c3ccc(-c4ccc([N+](=O)[O-])cc4)o3)C=C2c2ccccc2)cc1 [PCM-0095764],98.1%
24,CCCCCC1=C(C)CCC1=O [PCM-0216102],-16.2%
25,CC(=O)NC[C@H]1CN(c2ccc(N3CCOCC3)c(F)c2)C(=O)O1 [PCM-0064450],-23.3%

row,Compound,inhibition at 10 µM
1,CCC(=O)O[C@]1(C(=O)SCF)[C@H](C)C[C@H]2[C@@H]3C[C@H](F)C4=CC(=O)C=C[C@]4(C)[C@@]3(F)[C@@H](O)C[C@@]21C [PCM-0214707],15.2%
2,Cc1cnc(-c2ccccc2C(C)C)nc1NCc1ccc(-n2ccnn2)cc1 [PCM-0095782],3.9%
3,O=C(O)COc1nn(Cc2ccccc2)c2ccccc12 [PCM-0216238],-3.1%
4,C[N+]12CCc3cc4c(cc3C1(O)Cc1ccc3c(c1C2)OCO3)OCO4 (stereo not drawn) [PCM-0216462],-18.5%
5,CCOC(=O)/C=C/c1ccc(O)c(OC)c1 [PCM-0215040],-8.3%
6,O=C(O)c1cc(N=Nc2ccc(O)c(C(=O)O)c2)ccc1O [PCM-0214745],17.2%
7,O=C(/C=C\n1cnc(-c2cc(C(F)(F)F)cc(C(F)(F)F)c2)n1)NNc1ccccn1 [PCM-0215397],-19.3%
8,Cc1cc(/C=C/C#N)cc(C)c1Nc1ccnc(Nc2ccc(C#N)cc2)n1 [PCM-0215269],19.3%
9,COC(=O)[C@]12CCC(C)(C)C[C@H]1[C@H]1C(=O)C=C3[C@@]4(C)C=C(C#N)C(=O)C(C)(C)[C@@H]4CC[C@@]3(C)[C@]1(C)CC2 [PCM-0215239],16.6%
10,O=C(O)c1ccc2c(c1)C(=O)c1ccccc1C2=O [PCM-0216619],9.3%
11,O=C(O)c1cc2cccc([N+](=O)[O-])c2[nH]1 [PCM-0095778],0.8%
12,CO/N=C(\C(=O)N[C@@H]1C(=O)N2C(C(=O)O)=C(CSc3nc(C)c(CC(=O)O)s3)CS[C@H]12)c1csc(N)n1 [PCM-0215155],-2.3%
13,CC(=O)OC/C=C(\C)CCC=C(C)C [PCM-0216003],2.3%
14,O=C(Nc1ccccc1)c1cc([N+](=O)[O-])ccc1Cl [PCM-0065623],0.8%
15,C[C@@H]1O[C@@H](OC[C@H]2O[C@@H](Oc3cc(O)c4c(=O)cc(-c5ccc(O)cc5)oc4c3)[C@H](O[C@@H]3O[C@@H](C)[C@H](O)[C@@H](O)[C@H]3O)[C@@H](O)[C@@H]2O)[C@H](O)[C@H](O)[C@H]1O [PCM-0216389],13.9%
16,C=C1CC[C@@H]2[C@](C)(CO)[C@H](O)CC[C@@]2(C)[C@@H]1C/C=C1/C(=O)OC[C@H]1O [PCM-0094814],-6.2%
17,C[C@H]1O[C@@H](O[C@H]2CC[C@@]3(C)[C@@H](CC[C@]4(C)[C@@H]3C=C[C@]35OC[C@@]6(CCC(C)(C)C[C@H]63)[C@@H](O)C[C@]54C)[C@]2(C)CO)[C@H](O)[C@@H](O[C@@H]2O[C@H](CO)[C@@H](O)[C@H](O)[C@H]2O)[C@H]1O [PCM-0216249],-23.4%
18,O=c1[nH]c(=O)n([C@H]2C[C@H](O)[C@@H](CO)O2)cc1F [PCM-0086169],-3.9%
19,O=C(Nc1cn[nH]c1-c1nc2ccc(CN3CCOCC3)cc2[nH]1)NC1CC1 [PCM-0094942],93.8%
20,Cc1c(C(=O)Nc2ccc(N3CCC(N4CCOCC4)CC3)c(C#N)c2)cnn1-c1ccc(Cl)cc1 [PCM-0215293],-11.7%
21,C=C[C@H]1CN2CC[C@@]3(C(=O)Nc4ccccc43)[C@@H]2C[C@@H]1/C(=C\OC)C(=O)OC [PCM-0216491],-7.7%
22,CC(=O)O[C@]1(C(C)=O)CC[C@H]2[C@@H]3CCC4=CC(=O)CCC4=C3[C@@H](c3ccc(N(C)C)cc3)C[C@@]21C [PCM-0095563],38.9%
23,OC(CN1CCN(c2cccc(Cl)c2)CC1)C(c1ccccc1)c1ccccc1 (stereo not drawn) [PCM-0095352],37.4%
24,Cn1cc(-c2cnn3c(N)c(Br)c([C@@H]4CCCNC4)nc23)cn1 [PCM-0095786],-6.8%
25,CS(=O)(=O)c1ccc(C(=O)Nc2ccc(Cl)c(-c3ccccn3)c2)c(Cl)c1 [PCM-0095048],6.2%

row,Compound,inhibition at 10 µM
1,CCCCCCCCCCCCCC(=S)NCCCC[C@H](NC(=O)OCc1ccccc1)C(=O)Nc1ccccc1 [PCM-0215787],-6.2%
2,CN[C@@H]1[C@H](O)[C@H](NC)[C@H]2O[C@@]3(O)C(=O)C[C@@H](C)O[C@H]3O[C@@H]2[C@H]1O [PCM-0214688],2.3%
3,Cc1ccc(C(=O)N(CCCN)[C@@H](c2nc3cc(Cl)ccc3c(=O)n2Cc2ccccc2)C(C)C)cc1 [PCM-0095123],11.7%
4,O=C(O)c1cc(N=Nc2ccc(S(=O)(=O)Nc3ccccn3)cc2)ccc1O [PCM-0214740],48.3%
5,CCOc1nc2cccc(C(=O)OC(C)OC(=O)OC3CCCCC3)c2n1Cc1ccc(-c2ccccc2-c2nn[nH]n2)cc1 (stereo not drawn) [PCM-0090385],53.7%
6,COc1ccc(-c2ccc3c(N4CCOC[C@@H]4C)nc(N4CCOC[C@@H]4C)nc3n2)cc1CO [PCM-0095110],-8.3%
7,CC(=O)O/N=C1/C(c2c(O)[nH]c3cc(Br)ccc23)=Nc2ccccc21 [PCM-0215536],60.7%
8,CCCCN1CCCCC1C(=O)Nc1c(C)cccc1C (stereo not drawn) [PCM-0085904],-9.3%
9,N=c1cc(N2CCCCC2)nc(N)n1OS(=O)(=O)O [PCM-0216071],-9.3%
10,CC(C)(Sc1ccncc1-c1ccc(C#N)c2ccccc12)C(=O)O [PCM-0216646],-27.8%
11,CO/N=C(\C(=O)N[C@@H]1C(=O)N2C(C(=O)O)=C(C[N+]3(C)CCCC3)CS[C@H]12)c1csc(N)n1 [PCM-0214905],-10.1%
12,C[C@@H]1CC[C@]2(C(=O)O[C@@H]3O[C@H](CO)[C@@H](O)[C@H](O)[C@H]3O)CC[C@]3(C)C(=CC[C@@H]4[C@@]5(C)CC[C@H](O)[C@@](C)(CO)[C@@H]5CC[C@]43C)[C@@H]2[C@]1(C)O [PCM-0216572],-2.3%
13,C[C@H]1COC2=C1C(=O)C(=O)c1c2ccc2c1CCCC2(C)C [PCM-0091097],15.6%
14,CCN1CCCC1CNC(=O)c1cc(S(=O)(=O)CC)c(N)cc1OC (stereo not drawn) [PCM-0064775],0.8%
15,Cc1c(-c2ccnn2C)cc(C(=O)NCc2ccc(S(C)(=O)=O)cn2)c(=O)n1-c1cccc(C(F)(F)F)c1 [PCM-0215318],-3.1%
16,CN1C[C@@H]2c3ccccc3Oc3ccc(Cl)cc3[C@H]2C1 [PCM-0095064],9.3%
17,CCc1cc2c(cc1CC)CC(NC[C@H](O)c1ccc(O)c3[nH]c(=O)ccc13)C2 [PCM-0095564],19.5%
18,CCCNC(C)C(=O)Nc1c(C)csc1C(=O)OC (stereo not drawn) [PCM-0086324],-13.2%
19,O=S(=O)(NC1CCCCC1)c1ccc2c(c1)C(=NO)c1cc(S(=O)(=O)NC3CCCCC3)ccc1-2 [PCM-0215862],1.5%
20,Oc1ccc(OC2CCCCO2)cc1 (stereo not drawn) [PCM-0095551],11.7%
21,O=C1O[C@H]([C@H](O)CO)C(O)=C1O [PCM-0215957],1.5%
22,CC[C@@H](C(N)=O)N1CCCC1=O [PCM-0064838],15.6%
23,CCN(CCCc1ccccc1)CCCc1ccccc1 [PCM-0085793],-8.6%
24,CN(C)CCOc1ccc(-c2nc(-c3ccc4c(c3)CCC4=NO)c(-c3ccncc3)[nH]2)cc1 [PCM-0095262],-2.1%
25,CCN(CC)C[C@@H](O)CNc1ccc(NC[C@H]2CO2)c2c1C(=O)c1ccccc1C2=O [PCM-0215722],57.9%
